Test results: patent publication US8691187B2, “Imaging agents for detecting neurological disorders” (Eli Lilly and Company, priority 2009, dated 2014)

How the values were obtained:
synthetic tau = synthetic tau (Homo sapiens, UniProt P10636); assay: Synthetic tau Kd (F-18 labeled and cold compound, filtration); type: binding; details: Scheme 6 table
Protocol: (§1) Pick one brain section for each type and air-dry in hood. A solution of diluted F-18 labeled tracer (40 μCi/mL, 500 μL) which was obtained from the dilution of F-18 tracer with 1×PBS containing 2.5% EtOH and 2.5% DMSO was applied onto each slides to cover the whole tissue section. The resulting slides were incubated at room temperature for 90 minutes, drained, and placed onto a slide holder. The slides were then washed sequentially with 1×PBS for 1 min; 70% EtOH in 1×PBS for 2 min; 30% EtOH in 1×PBS for 2 min; and 1×PBS for 1 min. The slides were dried in the hood for 30 min, and then placed on Fuji imaging plates and exposed overnight. The imaging plates were then scanned and the signal was measured using Fuji software to produce an autoradiography image of the brain section. (PBS—Phosphate Buffer Saline) Protocol for Synthetic Beta-amyloid and Tau Kds
Various concentrations solution of F-18 labeled and its parent cold compound in 1×PBS containing 5% Ethanol and 5% DMSO (pH 7.4) were incubated with synthetic beta-Amyloid or synthetic tau at room temperature in glass tubes for 90 min. The reaction mixture in each tube was filtered under vacuum through a microfiber filter. Each tube was washed with a solution of 20% EtOH in PBS. The PBS wash solution was filtered under vacuum through the filters. Each filter was then washed with a solution of 20% EtOH in PBS and then placed into a gamma counter vial for CPM counting. The data obtained was plotted for Kd determination.

MAO-A = target: T1, MAO-A (Homo sapiens, UniProt P21397); assay: MAO inhibition, MAO-A; type: biochemical
T1 sequence (P21397 1-527): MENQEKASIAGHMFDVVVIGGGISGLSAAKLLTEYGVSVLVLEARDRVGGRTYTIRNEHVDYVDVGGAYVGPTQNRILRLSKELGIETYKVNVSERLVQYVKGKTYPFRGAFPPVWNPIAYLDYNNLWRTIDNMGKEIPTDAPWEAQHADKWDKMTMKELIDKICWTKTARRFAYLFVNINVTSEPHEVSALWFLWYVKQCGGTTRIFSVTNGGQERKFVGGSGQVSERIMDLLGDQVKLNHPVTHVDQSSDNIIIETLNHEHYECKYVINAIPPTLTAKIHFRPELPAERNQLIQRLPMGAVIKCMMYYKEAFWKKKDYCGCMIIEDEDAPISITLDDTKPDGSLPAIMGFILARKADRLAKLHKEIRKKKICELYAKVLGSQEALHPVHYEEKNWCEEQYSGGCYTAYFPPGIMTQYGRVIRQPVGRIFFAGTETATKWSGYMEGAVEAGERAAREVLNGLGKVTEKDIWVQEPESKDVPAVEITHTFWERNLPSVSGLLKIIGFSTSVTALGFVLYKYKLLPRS

tau/Ab = assay: selectivity (tau/Ab); type: binding
Monoamine transp. = assay: CNS selectivity panel, monoamine transporter; type: binding
MAO-B = target: T2, MAO-B (Homo sapiens, UniProt P27338); assay: MAO inhibition, MAO-B; type: biochemical
T2 sequence (P27338 1-520): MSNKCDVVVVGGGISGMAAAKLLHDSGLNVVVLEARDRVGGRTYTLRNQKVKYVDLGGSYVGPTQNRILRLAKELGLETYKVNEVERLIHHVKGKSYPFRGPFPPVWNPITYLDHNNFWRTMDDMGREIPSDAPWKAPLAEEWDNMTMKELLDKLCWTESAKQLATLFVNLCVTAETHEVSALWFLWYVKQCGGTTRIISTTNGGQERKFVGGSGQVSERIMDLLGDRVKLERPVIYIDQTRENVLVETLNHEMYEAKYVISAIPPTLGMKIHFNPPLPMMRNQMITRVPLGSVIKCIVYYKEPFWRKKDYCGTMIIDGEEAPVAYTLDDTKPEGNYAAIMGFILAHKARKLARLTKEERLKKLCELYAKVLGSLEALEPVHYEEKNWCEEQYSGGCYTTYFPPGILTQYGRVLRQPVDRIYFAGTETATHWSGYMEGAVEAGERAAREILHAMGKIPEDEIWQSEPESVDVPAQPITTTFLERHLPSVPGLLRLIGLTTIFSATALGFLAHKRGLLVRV

AchE = AchE (Homo sapiens, UniProt P22303); assay: AchE activity; type: biochemical
Bombesin BB3 = target: T3, Bombesin BB3 (Homo sapiens, UniProt P32247); assay: CNS selectivity panel, Bombesin BB3; type: binding; details: 10 uM (printed in T777 column)
T3 sequence (P32247 1-399): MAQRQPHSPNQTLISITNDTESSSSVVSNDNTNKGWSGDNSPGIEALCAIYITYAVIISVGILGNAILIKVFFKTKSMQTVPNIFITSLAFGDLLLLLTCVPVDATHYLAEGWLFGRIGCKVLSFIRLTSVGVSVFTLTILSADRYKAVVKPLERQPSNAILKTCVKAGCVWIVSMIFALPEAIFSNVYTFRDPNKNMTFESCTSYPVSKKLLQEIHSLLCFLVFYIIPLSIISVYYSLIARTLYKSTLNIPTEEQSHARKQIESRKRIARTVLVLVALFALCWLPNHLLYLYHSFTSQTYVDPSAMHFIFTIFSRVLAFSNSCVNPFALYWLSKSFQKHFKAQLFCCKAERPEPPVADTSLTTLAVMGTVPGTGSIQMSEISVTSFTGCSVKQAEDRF

Norepinephrine transp. = Norepinephrine transp. (Homo sapiens, UniProt P23975); assay: CNS selectivity panel, norepinephrine transporter; type: binding
human hepatocytes = assay: Stability in human hepatocytes; type: in vitro ADME
human AD brain slices = assay: Human AD brain section autoradiography with F-18 tracer; type: binding; details: for GM Intensity (comp. with W372): compared with W372; for Tx/tau/amyloid correlation: tracer signal vs tau and amyloid load
From the text: Furthermore, the selectivity can be evaluated in brains containing only Aβ plaques/no tau aggregates, Aβ plaques/and tau aggregates, and control brains. Unfortunately, there are no AD brains with only tau and no Aβ present. By testing radiolabeled tracers in these brain sections, one can more quantitative evaluate the relative binding strength (signal strength) and selectivity of various test compounds as they all contain the same radioactive tracer. For examples, if a test tracer binds only to tau, and not amyloid, it should show no signal in the Aβ plaques only brain sections. If a compound binds only to amyloid, it should show uptake in both types of brains. The difficulty of identifying and further quantifying selective compounds lies in the relative abundance of amyloid vs. tau, which is difficult to measure.
Human AD Brain Section Autoradiography
5 micron thick human AD brain slices were first examined using antibodies for Aβ and Tau to determine whether the tested human brain contains Aβ and Tau. Thus, three types of human brain slices were selected for autoradiography: Aβ+/Tau+; Aβ+/Tau−; and Aβ−/Tau−(control).
The experimental protocol is as follows:
as §1

[1] = Mouse and rat brain microPET imaging (brain uptake); type: in vivo; details: rats and mice
Protocol: Mouse and Rat Brain microPET Imaging
Wild type mice and rats were injected intravenously with the candidate tracers. Mice (weight range 25-45 g) were injected with doses between 180 and 300 μCi in 200 uL of saline solution. Rats (weight range 300-400 g) were injected with doses between 300 and 500 μCi of tracer in 400 μL of saline solution. Anesthesia was induced and maintained with Isoflurane. CT and PET scans were performed with a MM INVEON scanner (SIEMENS™). Acquisition for CT images preceded PET scanning and lasted 5 minutes. Only several minutes after the beginning of the PET acquisition, the radioactive dose was injected into the animal through the tail vein. Images were generated as dynamic scans that typically lasted 30 minutes. The initial image analysis consisted of determining whether there was uptake of the tracer in the brain which would establish its ability to cross the blood-brain barrier. All measurements were performed at the time point of 5 minutes following the injection of the tracer. The degree of uptake in the brain was estimated relative to the uptake of the traces in the region of neck muscles. The ratio between the percentage of injected dose per gram in the brain and that of the muscular neck region was provided as an estimate of brain uptake.

Sequence of AchE (P22303 32-614): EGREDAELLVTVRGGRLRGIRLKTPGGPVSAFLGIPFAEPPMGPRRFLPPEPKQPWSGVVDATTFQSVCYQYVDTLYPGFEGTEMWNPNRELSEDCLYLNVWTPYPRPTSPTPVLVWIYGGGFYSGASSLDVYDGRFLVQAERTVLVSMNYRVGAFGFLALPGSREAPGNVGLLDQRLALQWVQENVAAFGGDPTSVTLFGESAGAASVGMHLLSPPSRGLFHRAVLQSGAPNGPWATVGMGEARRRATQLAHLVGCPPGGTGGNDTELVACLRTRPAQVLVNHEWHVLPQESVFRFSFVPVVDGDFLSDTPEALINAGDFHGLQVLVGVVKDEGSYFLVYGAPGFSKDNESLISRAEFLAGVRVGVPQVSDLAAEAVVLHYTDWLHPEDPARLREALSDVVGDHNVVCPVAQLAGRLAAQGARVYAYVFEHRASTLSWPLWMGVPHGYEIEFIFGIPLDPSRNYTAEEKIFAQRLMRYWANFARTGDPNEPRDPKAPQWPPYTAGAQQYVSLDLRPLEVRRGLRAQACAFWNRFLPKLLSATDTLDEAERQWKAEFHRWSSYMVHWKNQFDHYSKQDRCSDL
Sequence of Norepinephrine transp. (P23975 whole entry): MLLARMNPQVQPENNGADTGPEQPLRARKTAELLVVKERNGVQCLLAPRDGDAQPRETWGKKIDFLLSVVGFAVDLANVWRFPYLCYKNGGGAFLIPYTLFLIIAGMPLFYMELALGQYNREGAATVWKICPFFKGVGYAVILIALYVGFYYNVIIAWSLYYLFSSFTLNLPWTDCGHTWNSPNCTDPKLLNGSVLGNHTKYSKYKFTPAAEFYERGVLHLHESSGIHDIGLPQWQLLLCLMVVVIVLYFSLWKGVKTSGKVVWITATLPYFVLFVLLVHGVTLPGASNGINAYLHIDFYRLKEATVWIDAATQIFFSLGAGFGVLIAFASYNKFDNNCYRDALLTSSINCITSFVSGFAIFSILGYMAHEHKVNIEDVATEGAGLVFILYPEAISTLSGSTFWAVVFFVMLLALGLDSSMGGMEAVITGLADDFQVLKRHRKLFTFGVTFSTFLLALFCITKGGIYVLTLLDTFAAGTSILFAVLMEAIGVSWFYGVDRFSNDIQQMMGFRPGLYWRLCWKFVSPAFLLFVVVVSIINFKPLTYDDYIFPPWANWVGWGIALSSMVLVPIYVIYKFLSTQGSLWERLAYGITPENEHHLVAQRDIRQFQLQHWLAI
Sequence of synthetic tau (P10636 whole entry): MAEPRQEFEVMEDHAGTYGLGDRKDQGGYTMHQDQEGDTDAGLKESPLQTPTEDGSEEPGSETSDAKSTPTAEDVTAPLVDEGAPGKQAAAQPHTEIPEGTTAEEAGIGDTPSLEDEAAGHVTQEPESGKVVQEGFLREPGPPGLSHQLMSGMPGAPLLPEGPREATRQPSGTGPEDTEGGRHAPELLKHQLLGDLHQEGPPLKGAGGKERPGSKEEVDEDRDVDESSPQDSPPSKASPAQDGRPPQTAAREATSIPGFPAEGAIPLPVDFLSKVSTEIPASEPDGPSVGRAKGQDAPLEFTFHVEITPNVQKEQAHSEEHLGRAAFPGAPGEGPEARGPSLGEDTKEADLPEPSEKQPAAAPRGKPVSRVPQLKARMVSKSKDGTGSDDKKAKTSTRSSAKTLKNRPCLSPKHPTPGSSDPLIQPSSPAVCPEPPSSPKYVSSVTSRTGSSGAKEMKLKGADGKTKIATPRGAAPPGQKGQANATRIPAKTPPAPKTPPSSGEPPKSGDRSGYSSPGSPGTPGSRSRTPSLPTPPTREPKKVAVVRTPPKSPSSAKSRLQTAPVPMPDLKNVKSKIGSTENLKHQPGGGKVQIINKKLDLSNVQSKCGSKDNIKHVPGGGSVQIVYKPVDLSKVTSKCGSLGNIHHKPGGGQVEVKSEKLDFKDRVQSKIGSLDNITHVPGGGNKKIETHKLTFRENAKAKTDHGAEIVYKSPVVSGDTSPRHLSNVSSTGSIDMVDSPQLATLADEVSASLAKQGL

Structure (SMILES) | Kd (synthetic tau) [nM] | inhibition at 1 µM (MAO-A) [%] | selectivity (tau/Ab) (tau/Ab) [×] | CNS selectivity panel: Monoamine transp. (Monoamine transp.; 10 uM) | inhibition at 1 µM (MAO-B) [%] | IC50 (AchE) [nM] | CNS selectivity panel: Bombesin BB3 (Bombesin BB3) | CNS selectivity panel: Norepinephrine transp. (Norepinephrine transp.; 10 uM) | human hepatocytes (stability) (human hepatocytes) | GM Intensity (comp. with W372) (human AD brain slices) [%] | Tx/tau/amyloid correlation (human AD brain slices) | Brain uptake [1] | IC50 (Monoamine transp.) [nM] | IC50 (Norepinephrine transp.) [nM]
FC1CCN(c2ccn3c(n2)nc2ccccc23)CC1 [Compound T777, 2-(4-fluoropiperidin-1-yl)benzo[4,5]imidazo[1,2-a]pyrimidine] | 19 | 9 | 25 | transp. (49%) | 0 | 3000 | Bombesin BB3 (49%) | transp. (42%) | not stable (polar metabolites) | 9 | yes | yes (4 rats, 4 mice) |  | 
FCCC1CCN(c2ccn3c(n2)nc2ccccc23)CC1 [Compound T808, 2-(4-(2-fluoroethyl)piperidin-1-yl)benzo[4,5]imidazo[1,2-a]pyrimidine] | 22 | 22 | 27 |  | 29 | 3000 | Bombesin BB3 (<20%) |  | stable | 18 | yes | yes (4 rats, 5 mice) | 2700 | 820
